Where two headings read alike, the source gives them in different places.
What was measured:
[1] = tested on: total facultative anaerobic bacteria; test: Gut microflora modulation in vivo, ileo-rectal contents of anastomosed piglets: total facultative anaerobic counts on Brucella agar; details: 300 ppm in feed; mean CFU per g ileal content dry matter; ten piglets; not significant
Enterococcus spp = test: Gut microflora modulation in vivo, ileo-rectal contents of anastomosed piglets: Enterococcus spp on Enterococci agar; details: 300 ppm in feed; ten piglets
[2] = type: in vivo; details: for FCR (kg/kg) / Feed intake / DWG / DWG relative to basal diet A (100) / FCR relative to basal diet A (100) / Feed intake relative to basal diet A (100): 400 ppm in diet (mixture 1: 150 ppm); for FCR (kg/kg) / Feed intake: mean ± standard deviation of 3 determinations; for DWG: mean ± standard deviation of 19 determinations; for DWG relative to basal diet A (100) / FCR relative to basal diet A (100) / Feed intake relative to basal diet A (100): value in brackets, control A = (100); for improvement of feed conversion ratio versus controls: 400 ppm in diet
[3] = tested on: total lactic acid bacteria; test: Gut microflora modulation in vivo, ileo-rectal contents of anastomosed piglets: lactic acid bacteria on MRS agar; details: ten piglets
Enterobacteriacae = test: Gut microflora modulation in vivo, ileo-rectal contents of anastomosed piglets: Enterobacteriacae on V.R.B.D agar; details: mean CFU per g ileal content dry matter, ten piglets, not significant; for total Enterobacteriacae counts decreased relative to the control: 300 ppm in feed
Escherichia coli = test: Gut microflora modulation in vivo, ileo-rectal contents of anastomosed piglets: Escherichia coli counts; details: mean CFU per g ileal content dry matter, ten piglets, not significant
Staphylococcus spp = test: Gut microflora modulation in vivo, ileo-rectal contents of anastomosed piglets: Staphylococcus spp on Baird Parker agar; details: 300 ppm in feed; ten piglets
[4] = 300 ppm in feed, mean CFU per g ileal content dry matter, not significant

| Compound | total facultative anaerobic bacteria counts increased relative to the control [1] | effect on the population of Enterococcus spp (in words) (Enterococcus spp) | FCR (kg/kg) ([2]; day 0-14) | Feed intake ([2]; day 0-14) | DWG ([2]; day 0-14) | DWG relative to basal diet A (100) ([2]; day 0-14) | FCR relative to basal diet A (100) ([2]; day 0-14) | Feed intake relative to basal diet A (100) ([2]; day 0-14) | FCR (kg/kg) ([2]; day 0-29) | Feed intake ([2]; day 0-29) | DWG ([2]; day 0-29) | DWG relative to basal diet A (100) ([2]; day 0-29) | FCR relative to basal diet A (100) ([2]; day 0-29) | Feed intake relative to basal diet A (100) ([2]; day 0-29) | total Enterobacteriacae counts decreased relative to the control (Enterobacteriacae) | other results |
| --- | --- | --- | --- | --- | --- | --- | --- | --- | --- | --- | --- | --- | --- | --- | --- | --- |
| Cc1cccc(C)c1O [2,6-dimethylphenol] | 37% | negative effect | 1.886 ± 0.06 kg/kg | 350 ± 5 g/day | 186 ± 45 g | (103) | (99) | (103) | 1.914 ± 0.053 kg/kg | 694 ± 27 g/day | 272 ± 53 g | (105) | (100) | (106) | 68% | effect on the total lactic acid bacteria (in words) ([3]; 300 ppm in feed): neutral effect |
| Oc1ccc(CC=Cc2ccccc2)cc1 [4-cinnamylphenol] |  |  | 1.82 ± 0.058 kg/kg | 345 ± 42 g/day | 193 ± 41 g | (107) | (96) | (102) | 1.953 ± 0.048 kg/kg | 670 ± 72 g/day | 262 ± 53 g | (101) | (102) | (102) | 36% | Escherichia coli counts decreased relative to the control (Escherichia coli; 300 ppm in feed): 42%; total lactic acid bacteria counts decreased relative to the control [3, 4]: 22% |
| O=C1/C(=C/c2ccc(O)c(O)c2)Oc2cc(O)cc(O)c21 [aureusidin] |  |  | 1.965 ± 0.21 kg/kg | 332 ± 52 g/day | 189 ± 61 g | (104) | (103) | (98) | 1.968 ± 0.018 kg/kg | 686 ± 72 g/day | 275 ± 48 g | (106) | (103) | (104) |  | Escherichia coli counts decreased relative to the control (Escherichia coli; 150 ppm in feed): 66%; total lactic acid bacteria counts decreased relative to the control ([3]; 150 ppm in feed, mean CFU per g ileal content dry matter, not significant): 17%; Enterobacteriacae counts decreased relative to the control (Enterobacteriacae; 150 ppm in feed): 30% |
| CCCc1ccc(O)c(OC)c1 [dihydroeugenol, 2-methoxy-4-propylphenol] | 12% | neutral effect | 1.776 ± 0.034 kg/kg | 364 ± 46 g/day | 208 ± 39 g | (115) | (93) | (107) | 1.88 ± 0.08 kg/kg | 708 ± 85 g/day | 285 ± 33 g | (110) | (98) | (108) | 67% | effect on the population of Staphylococcus spp (in words) (Staphylococcus spp): neutral effect; improvement of feed conversion ratio versus controls ([2]; first 14 days of the experiment): 7%; improvement of feed conversion ratio versus controls ([2]; whole observation period (29 days)): 2%; improvement of the daily weight gain comparatively to the non supplemented control ([2]; whole observation period (29 days), dihydroeugenol 400 ppm, mixture 1 150 ppm): 10%; total lactic acid bacteria counts increased relative to the control [3, 4]: 26% |
